Each structure is given as a SMILES string. Like-named read-outs stand apart in the source and are kept apart here.

Test [1] concerns HCI-H460. Description: Cell line inhibition analysis (CCK-8, 72 h). The settings on record: read-out: Cell growth inhibition GI50 HCI-H460. Format: cell-based. As to the method: (§1) C4-2B and 22Rv1 cells were purchased from ATCC and cultured according to the manufacturer's instructions. The cells were seeded in 96-well plates at 7×10^3cells/100 µl/well and allowed to attach for one day. After removing the culture medium, 90 µl/well of fresh culture medium was added, followed by addition of 10 µl/well of culture medium containing compounds at nine concentrations (0.076-500 µM) serially diluted 3-fold and DMSO control to achieve final concentrations of 0-50 µM, and then cultured for 72 hours in a 37 °C CO2 incubator. Cell proliferation after 72 hours was assessed by adding 10 µl/well of CCK-8 solution, orbital shaking for 30 seconds, then incubating at 37 °C CO2 incubator for 2 hours and measuring absorbance at 450 nm using a microplate reader. The measured absorbance values were corrected by subtracting the absorbance of wells containing only culture medium and CCK-8 solution, and GI50 values were calculated using GraphPad Prism 8 software.
(§2) Meanwhile, in a separate 96-well plate, cells were seeded at 7 × 10^3 cells/100 µl/well, allowed to attach for one day, CCK-8 solution was added, and absorbance was measured to establish the 'Growth (%) = 0' value.
(§3) Furthermore, experiments were conducted on A172, A549, HCI-H460, AsPC-1, MIA-Paca-2, DLD-1, HCT-116, HT-29, SW480, SW620, MDA-MB-231, and SKOV3 cell lines using the same method, with results shown in Tables 9 and 10 below [* <1 µM: A, <5 µM: B, <10 µM: C, >10 µM: D].

Test [2] deals with A172. Kind of test: Cell line inhibition analysis (CCK-8, 72 h). In kind it is cell-based. The settings on record: Homo sapiens, A 172; read-out: Cell growth inhibition GI50 A172. As to the method: as §1, §2, §3
The test system of test [3] is HT-29. Kind of test: Cell line inhibition analysis (CCK-8, 72 h). Format: cell-based. The following applies: Homo sapiens, read-out: Cell growth inhibition GI50 HT-29. As to the method:
as §1, §2, §3

Test [4] concerns HCT-116. Kind of test: Cell line inhibition analysis (CCK-8, 72 h). Format: cell-based. The settings on record: Homo sapiens, read-out: Cell growth inhibition GI50 HCT-116. As to the method:
as §1, §2, §3

Test [5] concerns AsPC-1. Description: Cell line inhibition analysis (CCK-8, 72 h). Format: cell-based. The settings on record: Homo sapiens, ASPC1; read-out: Cell growth inhibition GI50 AsPC-1. Here is the method: as §1, §2, §3
For test [6], the system named is MIA-Paca-2. Kind of test: Cell line inhibition analysis (CCK-8, 72 h). Format: cell-based. The settings on record: Homo sapiens, read-out: Cell growth inhibition GI50 MIA-Paca-2. As to the method: as §1, §2, §3
In test [7] the test system is A549. Kind of test: Cell line inhibition analysis (CCK-8, 72 h). In kind it is cell-based. The following applies: Homo sapiens, read-out: Cell growth inhibition GI50 A549. Here is the method: as §1, §2, §3
The subject of test [8] is SW620. Kind of test: Cell line inhibition analysis (CCK-8, 72 h). Format: cell-based. The following applies: Homo sapiens, SW-620; read-out: Cell growth inhibition GI50 SW620. As to the method:
as §1, §2, §3

Test [9] relates to MDA-MB-231. Kind of test: Cell line inhibition analysis (CCK-8, 72 h). Format: cell-based. The settings on record: Homo sapiens, read-out: Cell growth inhibition GI50 MDA-MB-231. As to the method:
as §1, §2, §3

The test system of test [10] is SKOV3. Description: Cell line inhibition analysis (CCK-8, 72 h). Format: cell-based. The following applies: Homo sapiens, SK-OV-3; read-out: Cell growth inhibition GI50 SKOV3. As to the method: as §1, §2, §3
The test system of test [11] is SW480. Description: Cell line inhibition analysis (CCK-8, 72 h). Format: cell-based. The settings on record: Homo sapiens, read-out: Cell growth inhibition GI50 SW480. Here is the method:
as §1, §2, §3

Test [12] deals with DLD-1. Description: Cell line inhibition analysis (CCK-8, 72 h). The following applies: Homo sapiens, read-out: Cell growth inhibition GI50 DLD-1. In kind it is cell-based. Here is the method: as §1, §2, §3
Test [13] has as its target T1, Src (Homo sapiens, UniProt P12931).
T1 construct: purchased Reaction Biology (RBC)
Description: Enzyme activity inhibition (Reaction Biology). Format: biochemical. As to the method: (§4) [* <10 nM: A, <100 nM: B, >100 nM: C]. [Table 7]

Test [14] concerns the target T2, ACK1 (Homo sapiens, UniProt Q07912).
T2 construct: purchased Reaction Biology (RBC)
Description: Enzyme activity inhibition (Reaction Biology). Format: biochemical. Here is the method:
as §4

Test [15] addresses T3, BMX (Homo sapiens, UniProt P51813).
T3 construct: purchased Reaction Biology (RBC)
T3 sequence (P51813 1-675): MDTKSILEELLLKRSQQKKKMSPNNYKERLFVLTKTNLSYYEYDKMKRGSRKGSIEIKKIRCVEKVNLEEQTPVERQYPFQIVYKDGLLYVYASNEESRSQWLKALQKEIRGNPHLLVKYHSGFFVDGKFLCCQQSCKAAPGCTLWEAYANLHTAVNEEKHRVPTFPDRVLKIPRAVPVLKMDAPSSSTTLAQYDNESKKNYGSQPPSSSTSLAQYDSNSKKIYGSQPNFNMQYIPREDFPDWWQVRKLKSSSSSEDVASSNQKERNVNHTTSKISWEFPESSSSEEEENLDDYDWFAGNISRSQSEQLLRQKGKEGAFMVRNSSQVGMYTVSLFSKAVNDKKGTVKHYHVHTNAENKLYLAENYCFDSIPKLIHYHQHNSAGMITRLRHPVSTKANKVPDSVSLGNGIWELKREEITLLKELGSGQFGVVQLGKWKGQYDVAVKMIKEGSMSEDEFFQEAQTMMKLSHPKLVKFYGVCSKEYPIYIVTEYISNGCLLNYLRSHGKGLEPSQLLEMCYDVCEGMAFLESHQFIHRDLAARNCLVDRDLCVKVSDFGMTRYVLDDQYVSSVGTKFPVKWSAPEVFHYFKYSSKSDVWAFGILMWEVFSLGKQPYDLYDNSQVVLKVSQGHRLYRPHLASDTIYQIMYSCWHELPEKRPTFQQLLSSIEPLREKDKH
Description: Enzyme activity inhibition (Reaction Biology). In kind it is biochemical. As to the method:
as §4

Test [16] has as its target PKMYT1 (Homo sapiens, UniProt Q99640). Kind of test: Kinase panel. The settings on record: PKMYT1, 1 µM; read-out: residual enzyme activity. In kind it is biochemical. The method, boiled down: (§5)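 1 µM, one concentration only, biochemical panel format. Residual activity computed per kinase; threshold for identification: residual ≤40%.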
In test [17] the target is P38A/MAPK14 (Homo sapiens, UniProt Q16539). Kind of test: Kinase panel. In kind it is biochemical. The settings on record: read-out: residual enzyme activity. The method, boiled down: as §5
Sequence of P38A/MAPK14 (Q16539 2-360 limits assumed): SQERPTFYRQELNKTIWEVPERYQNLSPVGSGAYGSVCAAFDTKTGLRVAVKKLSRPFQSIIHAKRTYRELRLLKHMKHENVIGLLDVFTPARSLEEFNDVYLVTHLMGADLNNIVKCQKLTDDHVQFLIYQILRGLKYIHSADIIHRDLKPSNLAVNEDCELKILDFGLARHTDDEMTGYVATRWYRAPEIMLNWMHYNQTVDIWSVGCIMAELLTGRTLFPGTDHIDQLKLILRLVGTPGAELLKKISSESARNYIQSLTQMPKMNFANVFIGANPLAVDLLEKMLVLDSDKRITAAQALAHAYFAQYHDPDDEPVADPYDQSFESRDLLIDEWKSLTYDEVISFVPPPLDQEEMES
In test [18] the target is CDK19/cyclin C (Homo sapiens, UniProt Q9BWU1). Kind of test: Kinase panel. Format: biochemical. The following applies: read-out: residual enzyme activity. The gist of the method:
as §5

The target of test [19] is RIPK3 (Homo sapiens, UniProt Q9Y572). Kind of test: Kinase panel. Format: biochemical. The following applies: RIPK3, 1 µM; read-out: residual enzyme activity. The gist of the method: as §5
Sequence of RIPK3 (Q9Y572 whole entry, species assumed): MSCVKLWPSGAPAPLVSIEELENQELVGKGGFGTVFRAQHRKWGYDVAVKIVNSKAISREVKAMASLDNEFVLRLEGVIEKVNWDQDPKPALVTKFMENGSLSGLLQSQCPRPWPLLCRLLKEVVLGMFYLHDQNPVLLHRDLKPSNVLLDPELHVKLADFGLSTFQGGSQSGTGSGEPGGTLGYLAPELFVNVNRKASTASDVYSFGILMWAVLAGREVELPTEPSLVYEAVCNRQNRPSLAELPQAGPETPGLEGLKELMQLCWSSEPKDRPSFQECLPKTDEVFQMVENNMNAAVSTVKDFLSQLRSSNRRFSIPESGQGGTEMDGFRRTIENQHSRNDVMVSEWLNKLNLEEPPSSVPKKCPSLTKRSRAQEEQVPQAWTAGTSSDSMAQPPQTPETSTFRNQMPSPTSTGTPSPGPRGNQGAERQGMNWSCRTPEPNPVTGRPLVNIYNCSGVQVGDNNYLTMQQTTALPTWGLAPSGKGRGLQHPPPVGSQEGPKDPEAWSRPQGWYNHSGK
In test [20] the target is CDK6/CYCLIN D2 (Homo sapiens, UniProt Q00534). Description: Kinase panel. Format: biochemical. The following applies: CDK6/CYCLIN D2, 1 µM; read-out: residual enzyme activity. The gist of the method:
as §5

T2 sequence (Q07912 whole entry): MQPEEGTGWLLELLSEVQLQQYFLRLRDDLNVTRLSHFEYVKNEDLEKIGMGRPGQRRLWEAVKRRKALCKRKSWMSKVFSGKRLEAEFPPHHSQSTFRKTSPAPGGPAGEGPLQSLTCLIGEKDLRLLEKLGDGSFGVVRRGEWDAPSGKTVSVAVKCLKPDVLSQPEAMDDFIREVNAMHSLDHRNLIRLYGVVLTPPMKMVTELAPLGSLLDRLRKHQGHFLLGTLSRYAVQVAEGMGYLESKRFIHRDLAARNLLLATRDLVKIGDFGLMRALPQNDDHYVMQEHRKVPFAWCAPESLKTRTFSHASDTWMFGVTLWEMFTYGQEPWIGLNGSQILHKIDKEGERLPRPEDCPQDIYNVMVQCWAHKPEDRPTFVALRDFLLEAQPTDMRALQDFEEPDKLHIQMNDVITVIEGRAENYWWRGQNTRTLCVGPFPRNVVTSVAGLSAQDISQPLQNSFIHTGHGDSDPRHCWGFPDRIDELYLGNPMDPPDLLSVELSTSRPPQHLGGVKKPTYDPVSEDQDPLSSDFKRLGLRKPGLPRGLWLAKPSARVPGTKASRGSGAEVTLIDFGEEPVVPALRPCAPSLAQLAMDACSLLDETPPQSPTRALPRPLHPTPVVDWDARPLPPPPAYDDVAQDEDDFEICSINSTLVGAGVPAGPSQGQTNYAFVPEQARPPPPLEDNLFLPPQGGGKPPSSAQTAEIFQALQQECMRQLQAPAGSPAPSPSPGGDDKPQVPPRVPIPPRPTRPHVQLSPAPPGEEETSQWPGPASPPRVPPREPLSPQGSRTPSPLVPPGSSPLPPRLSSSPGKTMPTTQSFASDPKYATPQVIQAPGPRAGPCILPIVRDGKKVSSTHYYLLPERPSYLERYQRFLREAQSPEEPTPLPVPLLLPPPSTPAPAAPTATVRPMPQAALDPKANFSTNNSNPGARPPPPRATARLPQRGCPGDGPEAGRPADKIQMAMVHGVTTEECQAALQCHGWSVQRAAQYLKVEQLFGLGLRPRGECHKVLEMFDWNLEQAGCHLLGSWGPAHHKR
T1 sequence (P12931 whole entry): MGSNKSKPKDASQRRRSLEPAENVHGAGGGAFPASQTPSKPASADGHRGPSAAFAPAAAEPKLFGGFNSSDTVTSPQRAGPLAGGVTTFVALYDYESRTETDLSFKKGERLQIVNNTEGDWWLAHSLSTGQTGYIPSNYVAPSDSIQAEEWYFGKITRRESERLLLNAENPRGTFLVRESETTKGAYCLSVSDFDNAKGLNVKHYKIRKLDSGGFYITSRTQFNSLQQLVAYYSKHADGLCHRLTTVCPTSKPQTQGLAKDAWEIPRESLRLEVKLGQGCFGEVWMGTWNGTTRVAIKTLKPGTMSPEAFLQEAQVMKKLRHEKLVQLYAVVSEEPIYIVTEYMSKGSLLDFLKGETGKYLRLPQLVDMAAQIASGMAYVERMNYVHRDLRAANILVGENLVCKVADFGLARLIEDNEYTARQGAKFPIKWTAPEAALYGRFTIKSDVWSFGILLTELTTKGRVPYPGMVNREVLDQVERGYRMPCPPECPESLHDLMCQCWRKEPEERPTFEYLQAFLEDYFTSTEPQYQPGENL
Sequence of CDK19/cyclin C (Q9BWU1 whole entry, species assumed): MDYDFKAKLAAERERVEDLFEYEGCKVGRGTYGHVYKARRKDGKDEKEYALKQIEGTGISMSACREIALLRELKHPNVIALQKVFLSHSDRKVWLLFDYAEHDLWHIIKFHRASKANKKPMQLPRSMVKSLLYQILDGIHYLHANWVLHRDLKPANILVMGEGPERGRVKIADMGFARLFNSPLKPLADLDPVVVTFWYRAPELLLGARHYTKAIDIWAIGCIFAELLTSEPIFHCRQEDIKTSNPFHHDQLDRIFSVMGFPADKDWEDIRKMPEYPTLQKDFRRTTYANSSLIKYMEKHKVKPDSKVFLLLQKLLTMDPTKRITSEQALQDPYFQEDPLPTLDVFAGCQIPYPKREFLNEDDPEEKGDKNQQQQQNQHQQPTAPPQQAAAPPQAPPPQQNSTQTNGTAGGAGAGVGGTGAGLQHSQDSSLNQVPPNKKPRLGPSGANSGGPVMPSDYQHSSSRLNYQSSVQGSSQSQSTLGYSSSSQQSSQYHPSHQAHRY
Sequence of CDK19/cyclin C (P24863 whole entry partner, species assumed): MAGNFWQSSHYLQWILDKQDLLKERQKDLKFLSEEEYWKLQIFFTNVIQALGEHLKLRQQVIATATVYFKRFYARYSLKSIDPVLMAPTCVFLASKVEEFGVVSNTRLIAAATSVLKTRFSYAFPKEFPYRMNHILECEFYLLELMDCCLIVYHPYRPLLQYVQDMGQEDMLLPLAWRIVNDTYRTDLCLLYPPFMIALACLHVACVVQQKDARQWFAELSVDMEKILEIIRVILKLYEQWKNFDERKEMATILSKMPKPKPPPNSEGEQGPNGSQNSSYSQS
Sequence of CDK6/CYCLIN D2 (Q00534 whole entry, species assumed): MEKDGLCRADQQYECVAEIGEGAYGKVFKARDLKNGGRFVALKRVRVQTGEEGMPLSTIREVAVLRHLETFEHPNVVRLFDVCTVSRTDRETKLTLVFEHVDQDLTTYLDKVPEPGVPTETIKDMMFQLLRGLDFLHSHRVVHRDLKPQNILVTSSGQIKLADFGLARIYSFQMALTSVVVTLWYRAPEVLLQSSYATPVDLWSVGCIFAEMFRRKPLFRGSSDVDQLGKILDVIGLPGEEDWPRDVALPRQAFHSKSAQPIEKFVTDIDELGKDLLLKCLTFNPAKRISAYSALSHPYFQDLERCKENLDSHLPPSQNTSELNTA
Sequence of CDK6/CYCLIN D2 (P30279 whole entry partner, species assumed): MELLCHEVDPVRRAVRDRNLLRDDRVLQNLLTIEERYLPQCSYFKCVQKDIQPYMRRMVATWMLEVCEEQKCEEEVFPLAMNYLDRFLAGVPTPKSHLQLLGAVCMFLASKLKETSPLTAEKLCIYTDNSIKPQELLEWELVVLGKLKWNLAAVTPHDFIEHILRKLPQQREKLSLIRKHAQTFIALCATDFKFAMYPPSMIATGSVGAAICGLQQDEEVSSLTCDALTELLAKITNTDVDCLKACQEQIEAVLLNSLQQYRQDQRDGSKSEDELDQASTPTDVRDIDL
Sequence of PKMYT1 (Q99640 whole entry, species assumed): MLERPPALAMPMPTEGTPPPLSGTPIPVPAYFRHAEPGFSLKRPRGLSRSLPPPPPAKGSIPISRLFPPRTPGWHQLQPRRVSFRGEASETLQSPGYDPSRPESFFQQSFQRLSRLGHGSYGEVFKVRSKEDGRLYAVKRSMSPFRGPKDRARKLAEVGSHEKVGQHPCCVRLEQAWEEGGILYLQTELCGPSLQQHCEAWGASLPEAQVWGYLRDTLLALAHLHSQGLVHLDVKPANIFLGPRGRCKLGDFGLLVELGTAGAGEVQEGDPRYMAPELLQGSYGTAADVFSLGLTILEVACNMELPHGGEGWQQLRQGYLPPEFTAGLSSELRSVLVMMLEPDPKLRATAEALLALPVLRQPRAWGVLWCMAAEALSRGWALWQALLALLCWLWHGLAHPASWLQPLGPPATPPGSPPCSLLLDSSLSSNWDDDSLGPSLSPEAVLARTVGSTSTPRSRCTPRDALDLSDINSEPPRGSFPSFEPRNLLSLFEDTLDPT

In general, GI50 refers to the concentration giving 50% growth inhibition. A word on the IC50: it is the concentration at which inhibition is half-maximal. A higher IC50 goes with a need for much substance. In the case of `Cc1ccc(Nc2ncc3c(n2)C2(CC2)C(=O)N(c2cc(NC(=O)c4cccc(C(F)(F)F)c4)ccc2C)C3)cn1` [Compound 51, N-(4-methyl-3-(2'-((6-methylpyridin-3-yl)amino)-7'-oxo-5'H-spiro[cyclopropane-1,8'-pyrido[4,3-d]pyrimidine]-6'(7'H)-yl)phenyl)-3-(trifluoromethyl)benzamide], the GI50 in test [1] was less than 1000 nM; in test [2] it was less than 1000 nM; in test [3], 1000 to 5000 nM; in test [4], less than 1000 nM; in [5], less than 1000 nM; in test [6], less than 1000 nM. Further, the GI50 is 1000 to 5000 nM in test [7]; 1000 to 5000 nM in [8]; less than 1000 nM in test [9]; less than 1000 nM in test [10]; less than 1000 nM in test [11]; 1000 to 5000 nM in test [12]. Further, the values for the IC50 in test [13], in test [14] and in [15] were less than 10 nM, 10 to 100 nM and less than 10 nM, respectively. The remaining activity at 1 µM in test [16] was more than 40%; in test [17] (P38a/MAPK14, 1 µM), not above 40%; in test [18], more than 40%; in [19], not above 40%.
As for `Cc1cn(-c2cc(C(=O)Nc3ccc(C)c(N4Cc5cnc(NC6CC6)nc5C5(CC5)C4=O)c3)cc(C(F)(F)F)c2)cn1` [Compound 8, N-(3-(2'-(cyclopropylamino)-7'-oxo-5'H-spiro[cyclopropane-1,8'-pyrido[4,3-d]pyrimidine]-6'(7'H)-yl)-4-methylphenyl)-3-(4-methyl-1H-imidazol-1-yl)-5-(trifluoromethyl)benzamide], the concentration for 50% growth inhibition (GI50) was 1000 to 5000 nM in test [1]; less than 1000 nM in test [2]; more than 10000 nM in [3]; less than 1000 nM in test [4]; 1000 to 5000 nM in [5]; less than 1000 nM in test [6]. For the same compound, the GI50 in test [7] was more than 10000 nM; in test [8] it was 1000 to 5000 nM; in [9], 1000 to 5000 nM; in [10], 1000 to 5000 nM; in test [11], 1000 to 5000 nM; in test [12], 1000 to 5000 nM. Further, the IC50 is 10 to 100 nM in test [13], less than 10 nM in test [14] and less than 10 nM in test [15]. Besides, the remaining activity at 1 µM in test [17] (P38A/MAPK14, 1 µM) is not above 40%; in test [20], more than 40%.

For the origin of these results see EP4722212A1, “NOVEL COMPOUND FOR INHIBITING PROTEIN KINASES AND PHARMACEUTICAL COMPOSITION COMPRISING SAME” (Magicbullettherapeutics Co., Ltd., priority 2023, dated 2024).
